For this assay, the target named is HIV protease (Human immunodeficiency virus type 1 group M subtype B, UniProt P04585). Put plainly: Enzymatic (fluorometric FRET) assay for determining the inhibition constant (Ki). It is filed as biochemical. Conditions: EDANS/DABCYL substrate, equation of Henderson. The text has this:
Enzymatic assay for determining the inhibition constant (Ki) of synthetic compounds targeting the HIV protease
This is a fluorometric assay based on the cleavage by protease of a substrate carrying a donor group (EDANS) and an acceptor group (DABCYL) on each side of the cleavage site, interacting together through fluorescence resonance energy transfer (FRET) as described by Matayoshi et al. (Science 247:[…], 1990).
After calculation of Vo and Vi, the inhibition constant (Ki) of the compound is determined using the equation of Henderson: (Vo)/(Vi) = 1 + ([I])/(Kiapp) Where Ki = (Kiapp)/((1 + [S])/(Km)) [formula] where Vo = the enzyme's initial velocity Vi = the enzyme velocity in the presence of the inhibitory compound, [I] = inhibitor concentration, [S] = substrate concentration, Km = Michaelis-Menten constant and Kiapp = apparent Ki
Graphs are traced and the Ki determined using GraphPad Prism software v. 3.0.

Where two headings read alike, the source gives them in different places.

In general, Ki refers to the dissociation constant of the complex between target and ligand, obtained from inhibition or displacement. `Cc1ccc(S(=O)(=O)N(CC(C)C)[C@@H](CCCCNC(=O)NNC(=O)c2ccccc2O)C(=O)O)cc1` [Example 10, Nα-isobutyl-Nα-(4-methylbenzenesulfonyl)-N∈-[N2-(2-hydroxybenzoyl)-hydrazino-N1-carbonyl]-L-lysine]: the affinity (Ki), expressed as Ki, was 55 nM.
On to `CC(C)CN([C@H](CO)CCCCNC(=O)N(Cc1cccnc1)Cc1ccccc1F)S(=O)(=O)c1ccc(N)cc1` [Example 73, (2S) 2-N-(4-aminobenzenesulfonyl)-2-N-isobutyl-6-N-[N'-(2-fluorobenzyl)-N'-(3-picolyl)aminocarbonyl]-2,6-diaminohexanol], for which the Ki (read-out: Ki) was more than 300 nM.
For the molecule `COc1cccc(OC)c1CNC(=O)NCCCC[C@@H](CO)N(CC(C)C)S(=O)(=O)c1ccc(N)cc1` [Example 78, (2S) 2-N-(4-aminobenzenesulfonyl)-2-N-isobutyl-6-N-(N'-2,6-dimethoxybenzylaminocarbonyl)-2,6-diaminohexanol], the Ki (read-out: Ki) is more than 300 nM.
Where the note is “Ki”, `CC(C)CCN([C@H](CO)CCCCNC(=O)N(Cc1ccccc1)Cc1cccc2c1OCO2)S(=O)(=O)c1ccc(N)cc1` [Example 96, (2S) 2-N-(4-aminobenzenesulfonyl)-2-N-(3-methylbutyl)-6-N-[N'-benzyl-N'-(2,3-methylenedioxy)benzylaminocarbonyl]-2,6-diaminohexanol] had a Ki of 4 nM.
Where the note is “Ki”, `Cc1ccc(S(=O)(=O)N(CC(C)C)[C@@H](CCCCNC(=O)N[C@@H](Cc2ccccc2)C(=O)NCC(C)C)C(=O)O)cc1` [Example 12, Nα-isobutyl-Nα-(4-methylbenzenesulfonyl)-N∈-(L-phenylalanyl-N'-isobutylamide-N'α-carbonyl)-L-lysine] had a Ki of 47 nM.
In the case of `Cc1ccc(S(=O)(=O)N(CC(C)C)C(CCCCNC(=N)NCc2ccccc2)C(=O)O)cc1` (racemic) [Example 30, Nα-isobutyl-Nα-(4-methylbenzenesulfonyl)-Nω-benzyl-DL-homoarginine], for the setting “read-out: Ki”, the Ki was more than 300 nM.
As for `CC(C)CCN([C@H](CO)CCCCNC(=O)N(Cc1ccc2c(c1)OCO2)CC(C)C)S(=O)(=O)c1ccc(N)cc1` [Example 104, (2S) 2-N-(4-aminobenzenesulfonyl)-2-N-(3-methylbutyl)-6-N-(N'-isobutyl-N'-piperonylaminocarbonyl)-2,6-diaminohexanol], the Ki (Ki) was 77 nM.
For `CC(C)CCN([C@H](CO)CCCCNC(=O)N(Cc1ccccc1)Cc1ccccc1)S(=O)(=O)c1ccc(N)cc1` [Example 86, (2S) 2-N-(4-aminobenzenesulfonyl)-2-N-(3-methylbutyl)-6-N-(N'-N'-dibenzylaminocarbonyl)-2,6-diaminohexanol], for the setting “Ki”, affinity was put at a Ki of 5.8 nM.
In the case of `Cc1ccc(S(=O)(=O)N(CC(C)C)C(CCCCNC(=S)NC2CCc3ccccc32)C(=O)O)cc1` [Example 14, (1S,TRS) Nα-isobutyl-Nα-(4-methylbenzenesulfonyl)-N∈-(indanyl-1'-aminothiocarbonyl)-S-lysine], where the note is “read-out: Ki”, the inhibitory constant (Ki) is more than 300 nM.
Same read-out and setting: next, `Cc1ccc(S(=O)(=O)N(CC(C)C)[C@@H](CCCCNC(=O)N(CCc2ccccc2)Cc2ccccc2)C(=O)O)cc1` [Example 31, Nα-isobutyl-Nα-(4-methylbenzenesulfonyl)-N∈-[(N'-benzyl-N'-phenethyl)aminocarbonyl]-L-lysine]: more than 300 nM.
Where the note is “Ki”, `COc1ccc(CN(Cc2ccc3c(c2)OCO3)C(=O)NCCCC[C@@H](CO)N(CCC(C)C)S(=O)(=O)c2ccc(N)cc2)cc1` [Example 88, (2S) 2-N-(4-aminobenzenesulfonyl)-2-N-(3-methylbutyl)-6-N-[N'-(4-methoxybenzyl)-N'-piperonylaminocarbonyl]-2,6-diaminohexanol] registered a Ki of 2.9 nM.
`Cc1ccc(S(=O)(=O)N(CC(C)C)[C@@H](CCCCNC(=O)NCCN2CCCCC2)C(=O)O)cc1` [Example 17, Nα-isobutyl-Nα-(4-methylbenzenesulfonyl)-N∈-[2'-(1-pyperidinyl)ethylaminocarbonyl]-L-lysine]: under “read-out: Ki”, the Ki is more than 300 nM.
On the same count and under the same terms, next, `COc1ccc(CNC(=O)NCCCC[C@@H](CO)N(CC(C)C)S(=O)(=O)c2ccc(N)cc2)cc1` [Example 77, (2S) 2-N-(4-aminobenzenesulfonyl)-2-N-isobutyl-6-N-(N'-4-methoxybenzylaminocarbonyl)-2,6-diaminohexanol]: more than 300 nM.
For `Cc1ccc(S(=O)(=O)N(CC(C)C)[C@@H](CCCCNC(=O)N[C@@H](Cc2ccccc2)C(N)=O)C(=O)O)cc1` [Example 8, Nα-isobutyl-Nα-(4-methylbenzenesulfonyl)-N∈-[L-phenylalanylamide-N'a-carbonyl]-L-lysine], the Ki (Ki) amounted to 60 nM.
Consider `COc1ccc(CN(Cc2ccc3c(c2)OCO3)C(=S)NCCCC[C@@H](CO)N(CCC(C)C)S(=O)(=O)c2ccc(N)cc2)cc1OC` [Example 106, (2S) 2-N-(4-aminobenzenesulfonyl)-2-N-(3-methylbutyl)-6-N-[N'-(3,4-dimethoxybenzyl)-N'-piperonylaminothiocarbonyl]-2,6-diaminohexanol], for which the Ki (Ki) was 2.9 nM.
Turning to `COc1cccc(CN(Cc2ccc3c(c2)OCO3)C(=S)NCCCC[C@@H](CO)N(CCC(C)C)S(=O)(=O)c2ccc(N)cc2)c1` [Example 105, (2S) 2-N-(4-aminobenzenesulfonyl)-2-N-(3-methylbutyl)-6-N-[N'-(3-methoxybenzyl)-N'-piperonylaminothiocarbonyl]-2,6-diaminohexanol], for the setting “Ki”, the Ki came out at 2.6 nM.
`CC(C)CCN([C@H](CO)CCCCNC(=O)N(Cc1ccccc1)Cc1ccc2c(c1)OCO2)S(=O)(=O)c1ccc(N)cc1` [Example 101, (2S) 2-N-(4-aminobenzenesulfonyl)-2-N-(3-methylbutyl)-6-N-[N'-benzyl-N'-piperonylaminocarbonyl]-2,6-diaminohexanol]: the Ki (Ki) is 4.1 nM.
In turn, `CC(C)CN([C@H](CO)CCCCNC(=O)N(Cc1ccccc1)Cc1ccc(F)cc1F)S(=O)(=O)c1ccc(N)cc1` [Example 93, (2S) 2-N-(4-aminobenzenesulfonyl)-2-N-isobutyl-6-N-[N'-benzyl-N'-(2,4-difluorobenzyl)aminocarbonyl]-2,6-diaminohexanol] gave a Ki (Ki) of 12 nM.
For the molecule `CC(C)CCN([C@H](CO)CCCCNC(=O)N(Cc1ccc2c(c1)OCO2)Cc1cccs1)S(=O)(=O)c1ccc(N)cc1` [Example 87, (2S) 2-N-(4-aminobenzenesulfonyl)-2-N-(3-methylbutyl)-6-N-[N'-(2-thiophenemethyl)-N'-piperonylaminocarbonyl]-2,6-diaminohexanol], affinity (Ki) was put at a Ki of 1.4 nM.
For the molecule `Cc1ccc(S(=O)(=O)N(CC(C)C)[C@@H](CCCCNC(=O)NCCc2ccc(O)cc2)C(=O)O)cc1` [Example 5, Nα-isobutyl-Nα-(4-methylbenzenesulfonyl)-N∈-[2'-(4-hydroxyphenethyl)aminocarbonyl]-L-lysine], the Ki (read-out: Ki) was more than 300 nM.
For the molecule `COc1ccc(CNC(=O)NCCCC[C@@H](CO)N(CC(C)C)S(=O)(=O)c2ccc(N)cc2)c(OC)c1` [Example 79, (2S) 2-N-(4-aminobenzenesulfonyl)-2-N-isobutyl-6-N-(N'-2,4-dimethoxybenzylaminocarbonyl)-2,6-diaminohexanol], the Ki (read-out: Ki) was more than 300 nM.
On to `Cc1ccc(S(=O)(=O)N(CC(C)C)[C@@H](CCCCNC(=O)N[C@@H]2c3ccccc3C[C@@H]2O)C(=O)O)cc1` [Example 22, (1S,1'R,2'S) Nα-isobutyl-Nα-(4-methylbenzenesulfonyl)-N∈-(cis-2'-hydroxyindanyl-1'-aminocarbonyl)-S-lysine], for which, under “read-out: Ki”, the Ki was more than 300 nM.
Take `COC(=O)[C@H](CCCCNC(=O)NCCc1ccccn1)N(CC(C)C)S(=O)(=O)c1ccc(C)cc1` [Example 19, Nα-isobutyl-Nα-(4-methylbenzenesulfonyl)-N∈-[(2'-pyridyl)ethylaminocarbonyl]-L-lysine methyl ester]: under “Ki”, the Ki was more than 300 nM.
As for `CCC(C)CN(C(CO)CCCCNC(=O)N(Cc1ccc(OC)cc1)Cc1ccc2c(c1)OCO2)S(=O)(=O)c1ccc(N)cc1` [Example 100, (2S) 2-N-(4-aminobenzenesulfonyl)-2-N-(2-methylbutyl)-6-N-[N'-(4-methoxybenzyl)-N'-piperonylaminocarbonyl]-2,6-diaminohexanol], the Ki (read-out: Ki) was more than 300 nM.
`Cc1ccc(S(=O)(=O)N(CC(C)C)[C@@H](CCCCNC(=O)NCCc2ccccc2)C(=O)O)cc1` [Example 1, Nα-isobutyl-Nα-(4-methylbenzenesulfonyl)-Nε-(2'-phenethylaminocarbonyl)-L-lysine]: the affinity (Ki) corresponds to a Ki of 204 nM.
On to `CC(C)CCN([C@H](CO)CCCCNC(=S)N(Cc1ccc(F)cc1)Cc1ccc2c(c1)OCCO2)S(=O)(=O)c1ccc(N)cc1` [Example 108, (2S) 2-N-(4-aminobenzenesulfonyl)-2-N-(3-methylbutyl)-6-N-[N"(4-fluorobenzyl)-N'-(3,4-ethylenedioxy)benzylaminothiocarbonyl]-2,6-diaminohexanol], for which, for the setting “Ki”, the Ki stood at 9.9 nM.
On to `Cc1ccc(S(=O)(=O)N(CC(C)C)[C@H](CCCCNC(=O)N[C@H]2CCc3ccccc32)C(=O)O)cc1` [Example 26, (1R,1'S) Nα-isobutyl-Nα-(4-methylbenzenesulfonyl)-N∈-(indanyl-1'-aminocarbonyl)-R-lysine], for which the Ki (read-out: Ki) was more than 300 nM.
Consider `Cc1ccc(S(=O)(=O)N(CC(C)C)[C@@H](CCCCNC(=O)N[C@@H](Cc2ccccc2)C(=O)Nc2ccccc2)C(=O)O)cc1` [Example 13, Nα-isobutyl-Nα-(4-methylbenzenesulfonyl)-N∈-(L-phenylalanyl-N'-phenylamide-N'α-carbonyl)-L-lysine], for which the Ki (Ki) was 60 nM.
With `Cc1ccc(S(=O)(=O)N(CC(C)C)[C@@H](CCCCNC(=O)Nc2nccc3ccccc23)C(=O)O)cc1` [Example 20, Nα-isobutyl-Nα-(4-methylbenzenesulfonyl)-N∈-(1'-isoquinolylaminocarbonyl)-L-lysine], the Ki (read-out: Ki) is more than 300 nM.

Source of the values: EP1480941B1, “UREA DERIVATIVES AS HIV ASPARTYL PROTEASE INHIBITORS” (priority 2002, dated 2003).
